Values quoted from earlier work, collected in patent US20260183298A1, “VIRAL PROPHYLAXIS TREATMENT METHODS AND PRE-EXPOSURE PROPHYLAXIS KITS” (priority 2022, published 2026).

Assays:
[1] = in vivo
EHV = conditions: about 75% of the horses infected with EHV; all horses treated with valacyclovir
[2] = system: HSV-1, HSV-2, HSV-8 (Kaposi's Sarcoma Virus), Vaccinia and Cowpox viruses

CC(C)[C@H](N)C(=O)OCCOCn1cnc2c(=O)[nH]c(N)nc21 [Valacyclovir, valacyclovir]
time to clear through the kidneys [1]: less than 24 hours
progression to severe neurological disease (EHV): none progressed to severe neurological disease
metabolism by cytochrome p450 (cytochrome p450): not metabolized by cytochrome p450
Renal clearance (following a single 1 g dose): 255 mL/min
Mean Cmax (in vivo): 830 to 5650 ng/mL
bioavailability (overall): 54.5%

CC(=O)OCC(CCn1cnc2cnc(N)nc21)COC(C)=O [Famciclovir, famciclovir]
time to clear through the kidneys [1]: less than 24 hours

Cc1cn([C@H]2C[C@H](O)[C@]3(CO)C[C@H]23)c(=O)[nH]c1=O [N-MCT, N-methanocarbathymidine]
antiviral activity [2]: inhibits
potency relative to reference antivirals ([2]; than the antiviral drugs acyclovir, ganciclovir and cidofovir): equally or more potent
